Results as given in US20250064799A1, “ORAL FORMULATIONS OF LEVOSIMENDAN FOR TREATING PULMONARY HYPERTENSION WITH HEART FAILURE WITH PRESERVED EJECTION FRACTION” (Tenax Therapeutics, Inc., priority 2021, published 2025).
Where “and” joins values, the source holds several entries; their conditions need not be identical. Identical values can stand only once. Entries after “also recorded” stand apart in the source; their conditions may differ.

Tests used:
[1] = tested on: patients with PH-HFpEF; assay: Kansas City Cardiomyopathy Questionnaire (KCCQ), I.V. to oral levosimendan transition study; format: in vivo, human
Description: (§1) Methods: Patients with PH-HFpEF who were in the open label extension study of the HELP Trial for more than 18 months volunteered to enroll in this transition protocol. Patients were initiated with 1 mg/day of oral levosimendan 5-7 days after the last IV levosimendan infusion. The oral dose was increased every 2 weeks by 1 mg/day to a maximum of 4 mg/day over an 8 week period. The highest daily dose was determined by the investigator based on clinical assessments of symptoms and side effects. The primary safety endpoints were change in resting heart rate and blood pressure from baseline to final study visit and all other adverse events. Secondary efficacy endpoints included change in six-minute walk distance (6MWD), serum brain natriuretic peptide (BNP) or NT-proBNP levels, and quality of life as assessed by Kansas City Cardiomyopathy Questionnaire clinical summary score (KCCQ-CS) and overall summary score (KCCQ-OS) from baseline to final study visit. All comparisons were the baseline and at week 6-8 measurements at the highest daily dose of levosimendan.
• Change in six-minute walk distance (6MWD) from baseline to final study visit • Change in serum brain natriuretic peptide (BNP) or NT-proBNP levels from baseline to final study visit • Change in quality of life as assessed by Kansas City Cardiomyopathy Questionnaire clinical summary score (KCCQ-CS) and overall summary score (KCCQ-OS) from baseline to final study visit
All comparisons were the baseline and at week 6-8 measurements at the highest daily dose of levosimendan.

[2] = tested on: patients with PH-HFpEF; assay: Adverse events, tolerability and final dose, I.V. to oral levosimendan transition study; format: in vivo, human; conditions: for SAEs attributed/related to study drug: 6-8 week transition
Description: The following considerations justified amending the TNX-LVO-05 study protocol: • 1. The amended TNX-LVO-05 protocol included the same patients enrolled in the original study. This was not a new study of the patients currently enrolled. This was open label, with no blinding of patients or physicians, and no control group. • 2. The scope and purpose of the study was unchanged, with the exception that it offered the further extension of treatment allowed by the transition to oral therapy (See item #4). • 3. The amendment clearly delineated a stepwise and thoughtful titration of patients from their intravenous to oral levosimendan to ensure the safe and effective transition of their levosimendan regimen. • a. Patients were started on 1 mg daily, representing a dose generally less than half their total weekly weight-based dose regimen. • b. Patients were titrated based on tolerance to the daily levosimendan paying attention to their symptoms of PH-HFpEF, and special attention to specific adverse events of interest, heart rate and blood pressure. A daily diary captured patient vitals and symptoms to aid their physician in titrating patients at two-week intervals. • c. Patient response also was evaluated by clinical measures to provide the physician with additional information on the patient's response. • d. While most patients were expected to receive 2-3 mg daily at the conclusion of the transition study, the dose escalation strategy was included to allow all patients to realize the same benefit as they did from the I.V. formulation. • e. To document the sustained efficacy of the oral formulation in these patients, patients had to undergo a six-minute walk test and patient questionnaire prior to and at the end of the transition study. • 4. The transition to oral levosimendan allowed for extension of the study from its initial two years to an additional three years. This offers these PH-HFpEF patients, with no other treatments available, to continue on a drug that they have responded to. • 5. The amendment required patients to sign a revised informed consent to ensure patients are completely informed concerning the transition amendment. Patients that preferred to continue with their weekly 24-hour I.V. regimen were allowed to continue through the initial two-year period of the study and then will be withdrawn.
as §1, with “levosimendan. […]” for “levosimendan.”

[3] = tested on: phosphodiesterase-3 (PDE3); conditions: in vitro; cited from earlier work
[4] = tested on: patients with PH-HFpEF; assay: HELP Study (TNX-LVO-04), weekly I.V. levosimendan for 6 weeks; format: in vivo, human; design: HELP (WK 6) 6MWT: unit not given here
Description: The initial HELP Study is described in PCT International Application Publication No. WO 2021/126884 and Burkhoff, et al. (2021) “Levosimendan improves hemodynamics and exercise tolerance in PH-HFpEF: results of the randomized placebo-controlled HELP trial,” the entire contents of each of which are incorporated by reference. […] Among the goals of the extension study was to determine the dose of oral levosimendan that could maintain the efficacy of the weekly I.V. infusions of levosimendan.
PH-HFpEF is a progressive, fatal disease for which there are no approved therapies. All patients that the 6-week parent TNX-LVO-04 study (also referred to as the initial Help Study) underwent assessments of safety and efficacy in a double-blind randomized protocol. […] For these reasons, all participating patients were allowed to enter an open-label extension study (also referred to as TNX-LVO-05), to provide ongoing levosimendan therapy for two additional years. […]

[5] = tested on: patients with PH-HFpEF; assay: TNX-LVO-05 open-label extension, weekly 24-hour I.V. levosimendan: 6MWT and HR; format: in vivo, human; design: TNX-LVO-05 (WK 24/48) 6MWT: unit not given beside the values; conditions: individual patients, week 24/48
Description: PH-HFpEF is a progressive, fatal disease for which there are no approved therapies. All patients that the 6-week parent TNX-LVO-04 study (also referred to as the initial Help Study) underwent assessments of safety and efficacy in a double-blind randomized protocol. […] For these reasons, all participating patients were allowed to enter an open-label extension study (also referred to as TNX-LVO-05), to provide ongoing levosimendan therapy for two additional years.
The efficacy of the once weekly levosimendan regimen is supported by an active metabolite with an extended half-life of 70-80 hours. The metabolite peaks approximately two days after completing the weekly dose, declining through the remainder of the week. Data from the parent TNX-LVO-04 study indicate patients' response to therapy peaks early in the week, followed by a decline in keeping with exposure to the active metabolite. Patients that entered TNX-LVO-05 were required to undergo the insertion of a port-a-cath, learn how to self-administer the levosimendan infusion through a port-a-cath at home, and weekly administer IV levosimendan through their port-a-cath for 24 hours. It is important to note that patients who entered TNX-LVO-05 have chosen to continue their 24-hour weekly levosimendan dose regimen, acknowledging that patients recognize the benefits of the drug.

[6] = baseline to final visit, oral levosimendan
[7] = individual patients, Active arm of HELP Study, weekly I.V. levosimendan, week 6

C[C@@H]1CC(=O)NN=C1c1ccc(NN=C(C#N)C#N)cc1 [levosimendan]
KCCQ OVERALL SUMMARY, mean Δ [1, 6]: +3.7 | KCCQ PHYSICAL LIMITATION, mean Δ [1, 6]: +0.3 | KCCQ QUALITY OF LIFE, mean Δ [1, 6]: +4.2 | KCCQ SELF EFFICACY, mean Δ [1, 6]: −2.3 | KCCQ SOCIAL LIMITATION, mean Δ [1, 6]: +5.5 | KCCQ Symptom Burden, mean Δ [1, 6]: +6.3 | KCCQ Symptom Frequency, mean Δ [1, 6]: +3.1 | KCCQ Symptom Stability, mean Δ [1, 6]: +9.4 | KCCQ TOTAL SYMPTOM, mean Δ [1, 6]: +4.7 | mean KCCQ-CS score improvement ([1]; n=16, oral levosimendan): 2.5 points | mean KCCQ-OS score improvement ([1]; n=16, oral levosimendan): 3.7 points | mean KCCQ-TS score improvement ([1]; n=16, oral levosimendan): 4.7 points | tolerability of transition to oral levosimendan ([2]; 6-8-week period, after >18 months of IV levosimendan): well tolerated without safety concerns | other adverse events ([2]; 18 patients, oral levosimendan): No other adverse events | serious adverse event not related to study drug ([2]; 18 patients, oral levosimendan, listed as study drug): One patient experienced a serious adverse event (SAE) unrelated to study drug; also recorded: One patient had a serious adverse event not related to the study drug | SAEs attributed/related to study drug ([2]; oral levosimendan): no SAEs related | SAEs attributed/related to study drug ([2]; oral levosimendan, listed as study drug): no SAEs were reported | PDE3/PDE4 inhibition ratio [3]: 10,000 | HELP (WK 6) 6MWT [4, 7]: 311 and 397 and 270 and 218 and 232 and 401 and 196 and 482 | HELP (WK 6) HR [4, 7]: 72 and 63 (2×) and 86 and 71 and 67 and 75 (2×) | average improvement of 6-minute walk distance ([4]; levosimendan alone, PH-HFpEF patients): approximately 29 m | effect on pulmonary vascular resistance ([4]; particularly upon chronic administration): did not decrease | TNX-LVO-05 (WK 24/48) 6MWT [5]: 310 and 180 and 312 and 255 and 347 and 393 and 313 and 91 and 274 and 213 and 225 and 174 and 590 | TNX-LVO-05 (WK 24/48) HR [5]: 62 (3×) and 64 and 85 (2×) and 70 and 69 and 74 and 58 and 73 and 82 and 75 and 87 and 65 and 78 and 77 and 91
